Experimental data taken from publication PMC12064818, “A general assay platform to study protein pharmacology using ligand-dependent structural dynamics” (Nature Communications, 2025).
Read-outs that look alike come from different tables or passages of the source.

How the values were obtained:
[1] = target: T1, FLuc-C-HiBiT (Photinus pyralis, UniProt P08659); assay: biochemical; conditions: enzyme activity, 10 uM ATP; read-out: IC50 or SDR50 (mM) / FLuc E
T1 construct: firefly luciferase with C-terminal HiBiT tag, E. coli expressed

[2] = target: FLuc-C-HiBiT (firefly luciferase) (Photinus pyralis, UniProt P08659, form not given/L550V); assay: SDR assay, FLuc-C-HiBiT; conditions: for % Activity (max response, + ATP) / % Activity (max response, - ATP): SDR max. response, clade S
[3] = target: T2, NLuc (Oplophorus gracilirostris, UniProt Q9GV45, A31E/A60N/A81I/F95D/I117V/K70R/L54V/L99Q/M102K/N193R/P142E/Q151K/Q38R/Q45L/V71I/Y165I); assay type: biochemical; conditions: - ATP
T2 construct: His tag (inferred from IMAC purification); made in house; host or cells: E. coli
Summary of the method: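 Test compounds added to 1 nM NLuc in PBS with 0.05% IGEPAL, ± ATP. Nano-Glo reagent added and incubated 10 min before luminescence read.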

[4] = target: FLuc-C-NLuc (firefly luciferase) (Photinus pyralis, UniProt P08659, form not given/L550V); assay: SDR assay, FLuc-C-NLuc; conditions: - ATP
[5] = target: P. pyralis FLuc (Photinus pyralis, UniProt P08659); assay: FLuc enzymatic luminescence assay, P. pyralis FLuc; assay type: biochemical; conditions: FLuc enzymatic assay; for IC50: read-out: IC50 or SDR50 (mM) FLuc E
Summary of the method: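 Runs with and without 10 µM ATP: compounds were pre-incubated with FLuc (1–10 nM, PBS pH 7.4) at ambient temperature, light-protected, for 30–60 min. Luminescence was imaged 5 min after adding 10 µM D-luciferin (final). Inhibition was scaled between DMSO neutral and no-enzyme controls.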

FLuc-C-NLuc (firefly luciferase), sequence (P08659 2-550 L550V, form open): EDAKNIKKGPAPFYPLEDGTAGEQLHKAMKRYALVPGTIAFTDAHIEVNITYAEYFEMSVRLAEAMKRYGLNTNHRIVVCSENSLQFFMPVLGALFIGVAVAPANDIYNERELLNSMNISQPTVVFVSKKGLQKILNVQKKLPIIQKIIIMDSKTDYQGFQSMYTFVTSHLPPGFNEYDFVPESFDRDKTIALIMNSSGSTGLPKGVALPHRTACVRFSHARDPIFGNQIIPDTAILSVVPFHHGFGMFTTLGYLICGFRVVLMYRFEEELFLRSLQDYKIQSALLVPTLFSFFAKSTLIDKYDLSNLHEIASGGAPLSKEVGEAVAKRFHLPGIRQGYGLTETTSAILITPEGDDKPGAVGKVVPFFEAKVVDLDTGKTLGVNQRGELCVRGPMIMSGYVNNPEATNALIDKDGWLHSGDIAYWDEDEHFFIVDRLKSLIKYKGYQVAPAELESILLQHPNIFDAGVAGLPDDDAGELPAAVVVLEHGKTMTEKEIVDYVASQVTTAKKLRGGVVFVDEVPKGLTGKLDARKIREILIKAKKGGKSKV
FLuc-C-HiBiT (firefly luciferase), sequence (P08659 2-550 L550V, form open): as above
T2 sequence (Q9GV45 other isoform, or with tags, fused parts or gaps with the stated changes): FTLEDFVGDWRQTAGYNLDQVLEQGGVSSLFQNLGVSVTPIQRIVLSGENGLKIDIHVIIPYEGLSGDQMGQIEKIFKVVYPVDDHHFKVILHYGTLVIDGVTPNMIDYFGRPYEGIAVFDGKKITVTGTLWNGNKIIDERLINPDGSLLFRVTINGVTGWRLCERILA
P. pyralis FLuc, sequence (P08659 whole entry): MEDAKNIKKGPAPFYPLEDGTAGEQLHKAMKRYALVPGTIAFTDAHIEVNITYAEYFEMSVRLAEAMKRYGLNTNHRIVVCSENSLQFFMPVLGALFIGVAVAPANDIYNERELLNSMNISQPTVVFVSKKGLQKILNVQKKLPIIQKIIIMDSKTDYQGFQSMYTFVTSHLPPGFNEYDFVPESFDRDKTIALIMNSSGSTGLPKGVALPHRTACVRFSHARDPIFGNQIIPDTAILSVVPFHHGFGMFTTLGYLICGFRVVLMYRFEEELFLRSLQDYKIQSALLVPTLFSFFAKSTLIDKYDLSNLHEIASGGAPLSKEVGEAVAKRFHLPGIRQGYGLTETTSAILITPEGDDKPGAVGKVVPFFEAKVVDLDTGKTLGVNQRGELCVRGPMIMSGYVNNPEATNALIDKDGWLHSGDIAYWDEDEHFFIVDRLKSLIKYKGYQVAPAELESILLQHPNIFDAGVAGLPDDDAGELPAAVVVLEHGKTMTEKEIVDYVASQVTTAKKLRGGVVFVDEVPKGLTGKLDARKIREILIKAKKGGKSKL
T1 sequence (P08659 whole entry, looked up): as the sequence (P08659 whole entry) above

Structure (SMILES)	IC50 [1] [mM]	% Activity (max response, + ATP) [2] [%]	% Activity (max response, - ATP) ([2]; - ATP) [%]	Efficacy (%) NLuc (- ATP) [3] [%]	Efficacy (%) FLuc-C-NLuc SDR (-ATP) [4] [%]	Efficacy (%) FLuc E ([5]; Clade S follow-up) [%]	pIC50 or pSDR50 FLuc E ([5]; Clade S follow-up)	IC50 ([5]; Clade S follow-up) [mM]	pIC50 or pSDR50 FLuc E [5]	IC50 [5] [mM]	pSDR50 (clade S) ([2]; - ATP, dihydro-imidazo-oxazine (clade S))	pIC50 or pSDR50 NLuc (- ATP) [3]	IC50 ([3]; read-out: IC50 or SDR50 (mM) NLuc (- ATP)) [mM]
CCOc1ccc(NC(=O)C2CCN(C(=O)c3ncn4c3COC(c3ccccc3)C4)CC2)cc1 (stereo not shown) [NCGC00449913-01]	0.007	212.53	0.00	-11.50	0.00	-92.73	5.36	0.00441	–	–	–	–	–
O=C(NCCc1cccs1)C1CCN(C(=O)c2ncn3c2COC(c2ccccc2)C3)CC1 (stereo not shown) [NCGC00449796-01]	0.00442	316.37	0.00	0.00	0.00	-97.05	–	–	5.26	0.00555	–	–	–
CC(C)c1cccc(NC(=O)C2CCN(C(=O)c3ncn4c3COC(c3ccccc3)C4)CC2)c1 (stereo not shown) [NCGC00449908-01]	0.00785	304.79	0.00	0.00	0.00	-95.10	5.26	0.00555	–	–	–	–	–
COc1ccc(NC(=O)C2CCN(C(=O)c3ncn4c3COC(c3ccccc3)C4)CC2)cc1Cl (stereo not shown) [NCGC00449919-01]	0.000881	241.73	38.71	-11.50	-15.13	-103.24	6.36	0.00044	–	–	4.85	–	–
CCOc1cccc(CNC(=O)C2CCN(C(=O)c3ncn4c3COC(c3ccccc3)C4)CC2)c1 (stereo not shown) [NCGC00449780-01]	0.00785	197.04	0.00	0.00	0.00	-78.48	–	–	4.96	0.0111	–	–	–
O=C(NCc1ccncc1)C1CCN(C(=O)c2ncn3c2COC(c2ccccc2)C3)CC1 (stereo not shown) [NCGC00449800-01]	0.00176	375.34	0.00	0.00	0.00	-91.84	–	–	6.01	0.00099	–	–	–
CSc1ccc(CNC(=O)C2CCN(C(=O)c3ncn4c3COC(c3ccccc3)C4)CC2)cc1 (stereo not shown) [NCGC00449782-01]	0.00624	293.16	0.00	-35.74	0.00	-89.02	–	–	5.26	0.00555	–	4.71	0.0197
O=C(NC1CCCCCCC1)C1CCN(C(=O)c2ncn3c2COC(c2ccc(Cl)cc2)C3)CC1 (stereo not shown) [NCGC00449847-01]	–	0.00	0.00	0.00	0.00	-17.30	–	–	–	–	–	–	–
CC1CCC(NC(=O)C2CCN(C(=O)c3ncn4c3COC(c3ccc(Cl)cc3)C4)CC2)CC1 (stereo not shown) [NCGC00449845-01]	–	0.00	0.00	0.00	0.00	0.00	–	–	–	–	–	–	–
COc1cccc(CNC(=O)C2CCN(C(=O)c3ncn4c3COC(c3ccccc3)C4)CC2)c1 (stereo not shown) [NCGC00449777-01]	–	322.03	0.00	0.00	0.00	-78.20	–	–	5.26	0.00555	–	–	–
O=C(NCc1ccc(Cl)cc1)C1CCN(C(=O)c2ncn3c2COC(c2ccccc2)C3)CC1 (stereo not shown) [NCGC00449788-01]	–	324.91	0.00	0.00	0.00	-95.09	–	–	5.41	0.00393	–	–	–
Cc1ccc(C2Cn3cnc(C(=O)N4CCC(C(=O)NCc5ccccc5)CC4)c3CO2)cc1 (stereo not shown) [NCGC00449884-01]	–	91.57	0.00	-9.37	0.00	-51.95	4.96	0.0111	–	–	–	–	–
O=C(NCc1cccc(F)c1)C1CCN(C(=O)c2ncn3c2COC(c2ccccc2)C3)CC1 (stereo not shown) [NCGC00449803-01]	–	254.28	0.00	0.00	0.00	-83.73	–	–	5.11	0.00784	–	–	–
Cc1cccc(CNC(=O)C2CCN(C(=O)c3ncn4c3COC(c3ccc(F)cc3)C4)CC2)c1 (stereo not shown) [NCGC00449836-01]	–	48.27	0.00	-9.94	0.00	-28.36	4.91	0.0124	–	–	–	–	–
O=C(Nc1ccccc1)C1CCN(C(=O)c2ncn3c2COC(c2ccc(F)cc2)C3)CC1 (stereo not shown) [NCGC00449920-01]	–	29.50	0.00	0.00	0.00	-13.92	–	–	–	–	–	–	–
